Results on 20 compounds are retold here after EP1144368B1, “ACETYLENIC ALPHA-AMINO ACID-BASED SULFONAMIDE HYDROXAMIC ACID TACE INHIBITORS” (priority 1999, dated 2000).

pIC50: −log10 of the molar value. Structures can show the parent of a compound that is named as a salt. Where two headings read alike, the source gives them in different places.

The target of experiment [1] is T1, MMP-1 (Homo sapiens, UniProt P03956).
T1 sequence (P03956 100-469): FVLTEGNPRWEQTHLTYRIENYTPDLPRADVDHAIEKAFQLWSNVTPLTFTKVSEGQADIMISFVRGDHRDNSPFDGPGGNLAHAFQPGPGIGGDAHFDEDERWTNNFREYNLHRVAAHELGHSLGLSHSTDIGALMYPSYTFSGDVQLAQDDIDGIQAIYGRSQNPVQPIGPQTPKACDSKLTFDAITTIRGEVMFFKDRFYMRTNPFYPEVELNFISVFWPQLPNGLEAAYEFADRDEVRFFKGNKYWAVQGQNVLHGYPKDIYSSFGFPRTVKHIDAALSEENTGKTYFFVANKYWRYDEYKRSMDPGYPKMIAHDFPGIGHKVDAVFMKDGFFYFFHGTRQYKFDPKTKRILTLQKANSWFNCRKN
The experiment in a line: MMP-1 inhibition (thiopeptide or fluorescent peptide substrate). In kind it is biochemical.
Description: (§1) The enzyme activity is measured by the rate of the color increase. The thiopeptide substrate is made up fresh as a 20 mM stock in 100% DMSO and the DTNB is dissolved in 100% DMSO as a 100 mM stock and stored in the dark at room temperature. Both the substrate and DTNB are diluted together to 1 mM with substrate buffer (50 mM HEPES pH 7.5, 5 mM CaCl2) before use. The stock of enzyme is diluted with buffer (50 mM HEPES, pH 7.5, 5 mM CaCl2, 0.02% Brij) to the desired final concentration.
(§2) Alternatively, a fluorescent peptide substrate is used. In this test procedure, the peptide substrate contains a fluorescent group and a quenching group. Upon cleavage of the substrate by an MMP, the fluorescence that is generated is quantitated on the fluorescence plate reader. The assay is run in HCBC assay buffer (50mM HEPES, pH 7.0, 5 mM Ca^+2, 0.02% Brij, 0.5% Cysteine), with human recombinant MMP-1, MMP-9, or MMP-13. The substrate is dissolved in methanol and stored frozen in 1 mM aliquots. For the assay, substrate and enzymes are diluted in HCBC buffer to the desired concentrations. Compounds are added to the 96 well plate containing enzyme and the reaction is started by the addition of substrate.
(§3) For either the thiopeptide or fluorescent peptide test procedures, the slope of the line is calculated and represents the reaction rate. The linearity of the reaction rate is confirmed (r^2 >0.85). The mean (x±sem) of the control rate is calculated and compared for statistical significance (p<0.05) with drug-treated rates using Dunnett's multiple comparison test.

Experiment [2] has as its target MMP-9 (Homo sapiens, UniProt P14780). The experiment in a line: MMP-9 inhibition (thiopeptide or fluorescent peptide substrate). It counts as biochemical.
Description: as §1, §2, §3
Experiment [3] has as its target MMP-13 (Homo sapiens, UniProt P45452). The experiment in a line: MMP-13 inhibition (thiopeptide or fluorescent peptide substrate). In kind it is biochemical.
Description: as §1, §2, §3
In experiment [4] the target is TACE (Homo sapiens, UniProt P78536). The experiment can be described thus: TACE inhibition (fluorescent peptidyl substrate). It counts as biochemical. Particulars: read-out: TACE IC50.
Description: Using 96-well black microtiter plates, each well receives a solution composed of 10 µL TACE (final concentration 1µg/mL), 70µL Tris buffer, pH 7.4 containing 10% glycerol (final concentration 10 mM), and 10 µL of test compound solution in DMSO (final concentration 1µM, DMSO concentration <1%) and incubated for 10 minutes at room temperature.
The reaction is read (excitation 340 nm, emission 420 nm) for 10 min. and the increase in fluorescence over time is plotted as a linear line. The slope of the line is calculated and represents the reaction rate.
The linearity of the reaction rate is confirmed (r^2 >0.85). The mean (x±sem) of the control rate is calculated and compared for statistical significance (p<0.05) with drug-treated rates using Dunnett's multiple comparison test.
The subject of experiment [5] is THP-1 cells. The experiment in a line: THP-1 Soluble Protein Assay (LPS-stimulated; ELISA of TNF-a, TNF-R p75/80, TNF-R p55/60, IL-8). It counts as cell-based, human. To be noted: for inhibition at 3 µM: Homo sapiens.
Description: Each vial of cells are cultured for about two weeks prior to being used for an assay and then are used for only 4 to 6 weeks to screen compounds.
Plates are placed into an incubator set at 5% CO2 and at 37° C. After 4 hours of incubation, 300 ml/well of tissue culture supernatant (TCS) is removed for use in an TNF-a ELISA.
Percent change in each soluble protein evaluated from the "vehicle positive control" was calculated for each compound concentration with the following formula: % Change =(pg/ml (compound) - pg/ml (veh pos control))/(pg/ml (veh pos control) - pg/ml (veh neg control))x 100 [formula]
For the soluble protein (TNF-a, p75/80, p55/60, IL-8) studies under stimulated conditions, the mean pg/ml of duplicate wells were determined and the results expressed as percent change from "vehicle positive control".
[6] abbreviates: THP-1, read-out: THP % inhibition @ 3 µM, 3 µM.
Where [7] appears, read: THP-1, 3 µM, read-out: THP % Inhibition @ 3µM.

TACE, sequence (P78536 215-824): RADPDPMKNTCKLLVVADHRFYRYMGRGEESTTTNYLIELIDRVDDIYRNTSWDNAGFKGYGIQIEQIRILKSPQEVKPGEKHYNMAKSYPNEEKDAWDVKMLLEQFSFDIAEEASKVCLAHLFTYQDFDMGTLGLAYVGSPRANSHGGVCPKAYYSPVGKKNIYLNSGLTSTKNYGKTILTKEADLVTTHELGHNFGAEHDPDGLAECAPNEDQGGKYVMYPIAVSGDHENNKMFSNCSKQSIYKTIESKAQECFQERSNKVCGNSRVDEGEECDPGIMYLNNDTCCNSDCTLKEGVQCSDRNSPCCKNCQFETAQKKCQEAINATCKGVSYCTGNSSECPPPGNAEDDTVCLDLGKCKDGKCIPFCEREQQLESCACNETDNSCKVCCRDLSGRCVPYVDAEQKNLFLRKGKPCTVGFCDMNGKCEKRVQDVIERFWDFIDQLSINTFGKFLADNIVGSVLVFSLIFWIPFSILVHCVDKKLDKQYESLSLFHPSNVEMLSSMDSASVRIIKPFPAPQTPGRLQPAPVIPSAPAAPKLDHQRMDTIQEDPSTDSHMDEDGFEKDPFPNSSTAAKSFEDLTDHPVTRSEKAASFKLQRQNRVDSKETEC
MMP-9, sequence (P14780 107-707 limits assumed): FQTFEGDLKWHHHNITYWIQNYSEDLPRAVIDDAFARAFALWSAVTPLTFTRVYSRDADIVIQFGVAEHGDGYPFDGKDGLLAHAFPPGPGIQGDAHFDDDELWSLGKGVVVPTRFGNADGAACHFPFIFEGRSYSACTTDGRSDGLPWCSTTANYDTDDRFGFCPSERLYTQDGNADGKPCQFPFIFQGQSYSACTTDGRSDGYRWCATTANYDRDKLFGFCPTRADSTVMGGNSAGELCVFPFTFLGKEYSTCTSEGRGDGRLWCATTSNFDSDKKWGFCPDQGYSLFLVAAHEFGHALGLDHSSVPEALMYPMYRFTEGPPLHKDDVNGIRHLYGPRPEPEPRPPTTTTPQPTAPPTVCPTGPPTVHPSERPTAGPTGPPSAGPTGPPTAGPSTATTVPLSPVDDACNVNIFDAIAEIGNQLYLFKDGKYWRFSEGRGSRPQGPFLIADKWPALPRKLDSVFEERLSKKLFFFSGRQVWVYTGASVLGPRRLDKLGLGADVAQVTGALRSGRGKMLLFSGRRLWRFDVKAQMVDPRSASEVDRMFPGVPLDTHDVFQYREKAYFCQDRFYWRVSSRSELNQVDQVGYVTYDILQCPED

For the compound “2-[(4-But-2-ynyloxy-benenesulfonyl)-methyl-amino]-N-hydroxy-3-methyl-3-ethylsulfanyl-butyramide [Example 150]”, the pIC50 (commonly −log10 of the IC50, conventionally taken in molar units) in experiment [1] is 7.60; in experiment [2], 7.70; in experiment [3], 8.03; in experiment [4], 7.29. Besides, the “THP % inhibition @ 3 µM” value in experiment [5] stood at 86%.

For “9-({[4-(2-Butynyloxy)phenyl]sulfonyl}-N-hydroxy-1-thia-4-azaspiro [5,5]undecane-5-carboxamide [Example 237]”, the pIC50 in experiment [1] is 7.21; in experiment [3] it was 7.92; in experiment [4] it was 6.67. Besides, the “THP % inhibition @ 3 µM” value in experiment [5] stood at 90%.

In the case of `CC#CCOc1ccc(S(=O)(=O)N2CCSC(C)(C)C2C(=O)NO)cc1` (stereo not shown) [235, 38], the pIC50 was 8.18 in experiment [1] and 8.08 in experiment [4]. Moreover, the inhibition (as a rule, the change of the read-out against control, counted positive when it falls) at 3 µM in experiment [5] (setting [6]) was 94%.

On to `CC#CCOc1ccc(S(=O)(=O)N(C)CC(=O)NO)cc1` [Example 17, 2-[(4-But-2-ynyloxy-benzenesulfonyl)-methyl-amino]-N-hydroxy-acetamide], for which the values for the pIC50 in experiment [1] and in experiment [3] were 5.72 and 7.00, respectively. Also, the inhibition at 3 µM in experiment [5] (setting [6]) was found to be 33%.

Take `CC#CCOc1ccc(S(=O)(=O)N(CC(=O)NO)Cc2cccnc2)cc1` [Example 23, 2-[(4-But-2-ynyloxy-benzenesulfonyl)-pyridin-3-ylmethyl-amino]-N-hydroxy-acetamide hydrochloride]: the pIC50 in experiment [1] was 5.94; in experiment [2], 7.40; in experiment [3], 7.70. For the same compound, the inhibition at 3 µM in experiment [5] (THP-1, read-out: THP % inhibition @ 3 µM) is 63%.

`CC#CCOc1ccc(S(=O)(=O)N(C)[C@@H](C)C(=O)NO)cc1` [Example 107, (2S)-2-[(4-But-2-ynyloxy-benzenesulfonyl)-methyl-amino]-N-hydroxy-propionamide]: the values for the pIC50 in experiment [1], in experiment [2] and in experiment [4] were 6.48, 7.17 and 8.35, respectively.

For `CC#CCOc1ccc(S(=O)(=O)N(CC#CCN(CC)CC)C(C(=O)NO)C(C)C)cc1` (stereo not shown) [Example 126, 2-{{[4-(2-Butynyloxy)phenyl]sulfonyl}[4-(diethylamino)-2-butynyl]amino}-N-hydroxy-3-methylbutanamide], the pIC50 in experiment [1] was 6.67; in experiment [2], 6.83; in experiment [3] it was 7.44; in experiment [4] it was 7.14. Further, the inhibition at 3 µM in experiment [5] (setting [6]) was 93%.

With `CN(CC(=O)NO)S(=O)(=O)c1ccc(OCC#Cc2ccc(Cl)cc2)cc1` [Example 132, 2-[[(4-{[3-(4-Chlorophenyl)-2-propynyl]oxy}phenyl)sulfonyl](methyl)amino]-N-hydroxyacetamide], the negative logarithm of the IC50 (pIC50) was below 5.00 in experiment [1], 5.62 in experiment [2], 5.95 in experiment [3] and 5.96 in experiment [4]. Further, in experiment [5] (setting [6]), the inhibition at 3 µM is 27%.

Regarding `C#CCNc1ccc(S(=O)(=O)N(C)CC(=O)NO)cc1` [Example 133, N-Hydroxy-2-(methyl{[4-(prop-2-ynylamino)phenyl]sulfonyl}amino)acetamide], the pIC50 in experiment [2] is 5.82; in experiment [3] it was 6.12; in experiment [4], 6.92. Further, in experiment [5] (setting [6]), the inhibition at 3 µM is 8%.

Regarding `CC#CCSc1ccc(S(=O)(=O)N(C)CC(=O)NO)cc1` [Example 134, 2-[(4-But-2-ynylthiophenylsulfonyl)methylamino]-N-hydroxyacetamide], the pIC50 in experiment [1] is 5.31; in experiment [2], 6.95; in experiment [3], 7.08. For the same compound, the inhibition at 3 µM in experiment [5] (setting [6]) amounted to 14%.

Regarding `CC#CCOc1ccc(S(=O)(=O)N(C)C(C(=O)NO)C(C)(C)SCCN2CCCC2C(=O)OC)cc1` (stereo not shown) [Example 145], the pIC50 in experiment [1] is 7.74; in experiment [2], 8.15; in experiment [3], 8.60; in experiment [4], 6.96. Besides, in experiment [5] (setting [6]), the inhibition at 3 µM was 83%.

Turning to `CC#CCOc1ccc(S(=O)(=O)N(C)C(C(=O)NO)C(C)(C)SCCCN(CC)CC)cc1` (stereo not shown) [Example 148], the pIC50 in experiment [1] was 7.60; in experiment [2], 8.32; in experiment [3], 8.28; in experiment [4], 7.06. Also, the inhibition at 3 µM in experiment [5] (setting [6]) was determined as 87%.

In experiment [2], `CC#CCOc1ccc(S(=O)(=O)N(C)C(CSCc2cccnc2)C(=O)NO)cc1` (stereo not shown) [Example 155, 2-[(4-But-2-ynyloxy-benenesulfonyl)-methyl-amino]-N-hydroxy-3-(pyridin-3-ylmethylsulfanyl)-butyramide] gave a pIC50 of 7.85. For the same compound, the inhibition at 3 µM in experiment [5] (setting [6]) is 93%.

Take `CC#CCOc1ccc(S(=O)(=O)N(C)C(CSCc2ccccc2)C(=O)NO)cc1` (stereo not shown) [Example 156, 3-(Benzylthio) -2-[[[4-(2-butynyloxy)phenyl]sulfonyl]methylamino] -N-hydroxypropanamide]: the pIC50 in experiment [2] is 7.96; in experiment [3] it was 8.35; in experiment [4], 8.32. Moreover, the inhibition at 3 µM in experiment [5] (setting [6]) was 75%.

Regarding `CC#CCOc1ccc(S(=O)(=O)N(C)C(C(=O)NO)c2ccc(OCCCNC(=O)OCc3ccccc3)cc2)cc1` (stereo not shown) [Example 196, Benzyl3-{4-[1-[{[4-(2-butynyloxy)phenyl]sulfonyl}(methyl)amino]-2-(hydroxyamino)-2-oxoethyl]phenoxy}propylcarbamate], the “MMP-1 %@1” value in experiment [1] (@1 (concentration unit not given)) turned out to be 25%@1. Besides, the inhibition at 3 µM in experiment [5] (setting [6]) was determined as 87%.

Turning to `CC#CCOc1ccc(S(=O)(=O)N2CCSC(CC)(CC)C2C(=O)NO)cc1` (stereo not shown) [Example 238], the pIC50 is 7.42 in experiment [1], 8.17 in experiment [3] and 6.64 in experiment [4]. Moreover, the inhibition at 3 µM in experiment [5] (setting [6]) came to 73%.

With `CC#CCOc1ccc(S(=O)(=O)N2CC(CNC(=O)OC(C)(C)C)SC(C)(C)C2C(=O)NO)cc1` [Example 274, tert-Butyl{(2S,5S)-4-{[4-(2-butynyloxy)phenyl]sulfonyl}-5-[(hydroxyamino)carbonyl]-6,6-dimethylthiomorpholinyl}methylcarbamate], the negative-log IC50 (pIC50) in experiment [2] was 6.97; in experiment [4] (Tables 11-14) it was 7.23. Moreover, the “THP % inhibition @ 3 µM” value in experiment [5] is 84%.

Regarding `CC#CCOc1ccc(S(=O)(=O)N2C[C@H](CN)SC(C)(C)[C@@H]2C(=O)NO)cc1` [Example 276, (3S,6S)-Cis-6-(aminomethyl)-4-{[4-(2-butynyloxy)phenyl]sulfonyl}-N-hydroxy-2,2-dimethyl-3-thiomorpholinecarboxamide hydrochloride], in experiment [2], the pIC50 was 7.19. Further, in experiment [5] (setting [7]), the inhibition at 3 µM was determined as 94%.

The compound `CC#CCOc1ccc(S(=O)(=O)N2CCN(C(=O)c3ccccc3)CCC2C(=O)NO)cc1` (stereo not shown) [Example 289, 1-Benzoyl-4-{[4-(2-butynyloxy)phenyl]sulfonyl}-N-hydroxy-1,4-diazepane-5-carboxamide] showed a pIC50 in experiment [3] of 8.40.

Consider `CC#CCOc1ccc(S(=O)(=O)N2CCN(C)CCC2C(=O)NO)cc1` (stereo not shown) [Example 293, 4-{[4-(2-Butynyloxy)phenyl]sulfonyl}-N-hydroxy-1-methyl-1,4-diazepane-5-carboxamide], for which, in experiment [3], the pIC50 is 7.68. In addition, the inhibition at 3 µM in experiment [5] (setting [7]) was determined as 82%.
